These results are taken from US4556735A, “Spergualin-related compounds having a phenylene group as well as a process for producing the same” (Zaidan Hojin Biseibutsu Kagaku Kenkyukai, priority 1984, dated 1985).

The nature of data set [1]: Stability of the compounds in aqueous solution (percent residue by high pressure liquid chromatography). The following applies: 0.5 (w/w) % in water, 40°±1° C. The data set is classed as physicochemical. The procedure: Each of the compounds of the present invention was dissolved in water to give a concentration of 0.5 (w/w) %. The aqueous solution was held at 40°±1° C. and samples were taken at given intervals. They were subjected to high pressure liquid chromatography and the percent residue was calculated for each sample by measuring the peak area ratio.
The percent residue for the compounds of the present invention after the lapse of a given period is shown in Table 2, with the value for the start of the experiment being taken as 100%.

For the next data set, the system named is rats. Description: Toxicity in rats (decrease rate of body weight). It is filed as in vivo, rat. The conditions noted are these: intraperitoneal, once a day for 10 days, 6.25 mg/ml in 0.2 ml/100 g. The procedure: The compound No. 1 was dissolved in physiological saline (the concentration of the compound No. 1: 6.25 mg/ml). The obtained solution was administered intraperitoneally to rats once a day for 10 consecutive days in a volume of 0.2 ml/100 g (body weight).
Decrease rate of body weight of rats was determined as follows: [formula]

The subject of data set [2] is mouse leukemia L1210. Description: Life extending effect against mouse leukemia L1210. The data set is classed as in vivo. The following applies: 9 consecutive days, >125 considered effective. The procedure: Leukemia cells L1210 (1×10^5 cells/0.2 ml) were inoculated in the intraperitoneal cavity of CDF1 -SLC female mice (6 mice per group). Two compounds of the present invention were each diluted with physiological saline in various concentrations, and starting on the day following the transplantation, each dilution was administered to the mice for 9 consecutive days in a volume of 0.1 ml 10 g (body weight).
30 Days after the inoculation, the mean survival time (day) for each treated group was calculated, and divided by the mean survival time of the control group, and multiplied by 100 to obtain the percent life prolongation (T/C). T/C values greater than 125 are considered to be effective.

Data set [3] concerns mouse leukemia L1210 cells. Description: Inhibition of in vitro growth of mouse leukemia L1210 cells. The data set is classed as cell-based. The following applies: 48 hours at 37° C., 5% CO2. The procedure: Leukemia L1210 cells (1×10^5 /0.2 ml) were transplanted in the intraperitoneal cavity of DBA/2 strain female mice. Four days later, a sample of the abdominal ascites was taken and centrifuged to obtain L1210 cells. These cells were suspended in an RPMI 1640 medium supplemented with fetal bovine serum and 2-mercaptoethanol to have a final concentration of 5×10^4 cells/0.9 ml.
Each of the compounds of the present invention was dissolved in the medium shown above.
A portion (0.9 ml) of the L1210 cell suspension was mixed with 0.1 ml of the test solution ranging from 0.62 to 1000 μg/ml, and the mixture was incubated in a 5% CO2 atmosphere for 48 hours at 37° C. The cell count was determined both before and after the incubation, and the concentration to inhibit the growth of L1210 cells by 50% of the control (IC50) was determined.

For data set [4] the following is noted: prior art statement; cited from earlier work.
Data set [5] concerns Gram-positive microorganisms. The following applies: cited from earlier work.
Data set [6] deals with mouse leukemia L1210. The following applies: cited from earlier work.
The next data set relates to leukemia EL-4. The following applies: cited from earlier work.
A further data set deals with Ehrlich carcinoma. The following applies: cited from earlier work.
The next data set relates to Sarcoma 180. The following applies: cited from earlier work.

Molecules are shown by their SMILES. Counter-ions that a name gives are not always drawn.

In general, IC50 refers to the point on the concentration scale where inhibition reaches its midpoint.

With `N=C(N)Nc1ccc(CCCC(=O)N[C@@H](CO)C(=O)NCCCCNCCCN)cc1` [Compound 1, 10-{N-[4-(4-GP)Butanoyl]-L-seryl}-1,5,10-TAD trihydrochloride], the “Percent residue in aqueous solution” value in data set [1] (Time 0 (taken as 100%)) worked out at 100%; in data set [1] (Time 12 (time unit not given)), 99.8%; in data set [1] (Time 24 (time unit not given)) it was 99.6%; in [1] (Time 48 (time unit not given)) it was 99.8%; in data set [1] (Time 72 (time unit not given)), 99.5%; in data set [1] (Time 120 (time unit not given)) it was 99.6%. The “Percent residue in aqueous solution” value in data set [1] (Time 168 (time unit not given)) is recorded as 99.5%. Also, in the data set with rats, the “Decrease rate of body weight of rats” value is “very small”. The toxicity result with rats (rats) is recorded as “a little”. For the same molecule, the “T/C (percent life prolongation)” value is given as 149% in the data set on mouse leukemia L1210 [2] (0.39 mg/kg/day); 406% in the data set on mouse leukemia L1210 [2] (0.78 mg/kg/day); 435% in the data set with mouse leukemia L1210 [2] (1.56 mg/kg/day); 435% in the data set on mouse leukemia L1210 [2] (3.13 mg/kg/day); 435% in the data set with mouse leukemia L1210 [2] (6.25 mg/kg/day); 420% with mouse leukemia L1210 [2] (12.50 mg/kg/day). The “T/C (percent life prolongation)” value in the data set on mouse leukemia L1210 [2] (25.00 mg/kg/day) turned out to be 178%.

Consider `N=C(N)Nc1ccc(CCCC(=O)NCC(=O)NCCCCNCCCN)cc1` [Compound 2, 10-{N-[4-(4-GP)Butanoyl]glycyl}-1,5,10-TAD trihydrochloride], for which the “Percent residue in aqueous solution” value in [1] (Time 0 (taken as 100%)) is 100%; in [1] (Time 12 (time unit not given)) it was 99.7%; in [1] (Time 24 (time unit not given)) it was 99.9%; in [1] (Time 48 (time unit not given)), 99.8%; in data set [1] (Time 72 (time unit not given)), 99.9%; in data set [1] (Time 120 (time unit not given)) it was 100%. Also, the “Percent residue in aqueous solution” value in data set [1] (Time 168 (time unit not given)) was determined as 99.8%. For the same molecule, the “T/C (percent life prolongation)” value worked out at 109% in the data set with mouse leukemia L1210 [2] (0.39 mg/kg/day); 145% with mouse leukemia L1210 [2] (0.78 mg/kg/day); 435% with mouse leukemia L1210 [2] (1.56 mg/kg/day); 435% in the data set on mouse leukemia L1210 [2] (3.13 mg/kg/day); 435% in the data set on mouse leukemia L1210 [2] (6.25 mg/kg/day); 435% in the data set on mouse leukemia L1210 [2] (12.50 mg/kg/day). For the same molecule, the figures for the “T/C (percent life prolongation)” value in the data set with mouse leukemia L1210 [2] (25.00 mg/kg/day) and with mouse leukemia L1210 [2] (50.00 mg/kg/day) were 435% and 15%, respectively.

With `N=C(N)NCc1ccc(CCC(=O)N[C@@H](CO)C(=O)NCCCCNCCCN)cc1` [Compound 3, 10-{N-[3-(4-GMP)Propanoyl]-L-seryl}-1,5,10-TAD trihydrochloride], the “Percent residue in aqueous solution” value in data set [1] (Time 0 (taken as 100%)) is reported as 100%; in [1] (Time 12 (time unit not given)), 99.6%; in [1] (Time 24 (time unit not given)), 99.5%; in [1] (Time 48 (time unit not given)), 99.8%; in data set [1] (Time 72 (time unit not given)), 99.6%; in [1] (Time 120 (time unit not given)), 99.6%. The “Percent residue in aqueous solution” value in data set [1] (Time 168 (time unit not given)) came to 99.8%.

As to `N=C(N)NCCCc1ccc(C(=O)N[C@@H](CO)C(=O)NCCCCNCCCN)cc1` [Compound 4, 10-{N-[4-(3-GPro)Benzoyl]-L-seryl}-1,5,10-TAD trihydrochloride], the “Percent residue in aqueous solution” value in data set [1] (Time 0 (taken as 100%)) stood at 100%; in data set [1] (Time 12 (time unit not given)), 99.6%; in data set [1] (Time 24 (time unit not given)), 99.9%; in data set [1] (Time 48 (time unit not given)), 99.6%; in data set [1] (Time 72 (time unit not given)), 99.7%; in data set [1] (Time 120 (time unit not given)), 99.9%. The “Percent residue in aqueous solution” value in data set [1] (Time 168 (time unit not given)) stood at 99.5%. Further, the IC50 in data set [3] was determined as 1.1 µg/mL.

For the molecule `N=C(N)NCc1cccc(CCC(=O)N[C@@H](CO)C(=O)NCCCCNCCCN)c1` [Compound 5, 10-{N-[3-(3-GMP)Propanoyl]-L-seryl}-1,5,10-TAD trihydrochloride], the “Percent residue in aqueous solution” value in data set [1] (Time 0 (taken as 100%)) is 100%; in data set [1] (Time 12 (time unit not given)) it was 99.9%; in data set [1] (Time 24 (time unit not given)), 99.6%; in [1] (Time 48 (time unit not given)), 99.6%; in [1] (Time 72 (time unit not given)), 99.9%; in data set [1] (Time 120 (time unit not given)), 99.6%. Further, the “Percent residue in aqueous solution” value in data set [1] (Time 168 (time unit not given)) was 99.8%.

For the molecule `N=C(N)Nc1ccc(CCCCC(=O)N[C@@H](CO)C(=O)NCCCCNCCCN)cc1` [Compound 6, 10-{N-[5-(4-GP)Pentanoyl]-L-seryl}-1,5,10-TAD trihydrochloride], the “Percent residue in aqueous solution” value in data set [1] (Time 0 (taken as 100%)) is listed as 100%; in [1] (Time 12 (time unit not given)), 99.5%; in data set [1] (Time 24 (time unit not given)) it was 99.8%; in data set [1] (Time 48 (time unit not given)), 99.7%; in data set [1] (Time 72 (time unit not given)), 99.7%; in [1] (Time 120 (time unit not given)), 99.5%. Also, in [1] (Time 168 (time unit not given)), the “Percent residue in aqueous solution” value was 100%.

For the molecule `N=C(N)NCCCc1ccc(C(=O)NCC(=O)NCCCCNCCCN)cc1` [Compound 7, 10-{N-[4-(3-GPro)Benzoyl]glycyl}-1,5,10-TAD trihydrochloride], the “Percent residue in aqueous solution” value in data set [1] (Time 0 (taken as 100%)) is on record as 100%; in data set [1] (Time 12 (time unit not given)), 99.6%; in data set [1] (Time 24 (time unit not given)), 99.6%; in data set [1] (Time 48 (time unit not given)), 100%; in data set [1] (Time 72 (time unit not given)), 100%; in data set [1] (Time 120 (time unit not given)), 99.9%. Also, the “Percent residue in aqueous solution” value in data set [1] (Time 168 (time unit not given)) is recorded as 99.7%. The same molecule came in with an IC50 in [3] of 0.92 µg/mL.

In the case of `N=C(N)NCc1ccccc1CCCCC(=O)N[C@@H](CO)C(=O)NCCCCNCCCN` [Compound 8, 10-{N-[5-(2-GMP)Pentanoyl]-L-ceryl}-1,5,10-TAD trihydrochloride], the “Percent residue in aqueous solution” value in data set [1] (Time 0 (taken as 100%)) worked out at 100%; in [1] (Time 12 (time unit not given)), 99.7%; in [1] (Time 24 (time unit not given)), 99.9%; in data set [1] (Time 48 (time unit not given)), 99.5%; in data set [1] (Time 72 (time unit not given)), 99.8%; in data set [1] (Time 120 (time unit not given)), 99.7%. Besides, the “Percent residue in aqueous solution” value in data set [1] (Time 168 (time unit not given)) is 99.8%. This molecule also displayed an IC50 in [3] of 0.97 µg/mL.

On to `N=C(N)NCc1ccc(CCC(=O)N[C@@H](CO)C(=O)NCCCCNCCCN)c(Cl)c1` [Compound 9, 10-{N-[3-(2-Chloro-4-GMP)propanoyl]-L-seryl}-1,5,10-TAD trihydrochloride], for which the “Percent residue in aqueous solution” value in [1] (Time 0 (taken as 100%)) is recorded as 100%; in data set [1] (Time 12 (time unit not given)), 99.8%; in data set [1] (Time 24 (time unit not given)), 99.8%; in data set [1] (Time 48 (time unit not given)), 99.7%; in [1] (Time 72 (time unit not given)), 100%; in data set [1] (Time 120 (time unit not given)) it was 99.5%. Further, the “Percent residue in aqueous solution” value in [1] (Time 168 (time unit not given)) is given as 99.6%.

Regarding `N=C(N)NCCCCC(O)CC(=O)NC(O)C(=O)NCCCCNCCCN` (stereo not drawn) [Spergualin], the “Percent residue in aqueous solution” value in data set [1] (Time 0 (taken as 100%)) is listed as 100%. The “stability in an aqueous solution” value in data set [4] is recorded as “unstable”. Further, the “inhibit the growth of Gram-positive microorganisms” value in data set [5] is listed as “ability to inhibit the growth”. Besides, the antineoplastic effects result with mouse leukemia L1210 [6], in the data set with leukemia EL-4, in the data set on Ehrlich carcinoma and in the data set on Sarcoma 180 was “significant antineoplastic effects” each time.
